{"source": "patent EP0542497A1", "about": "“Heterocyclic compounds” (THE WELLCOME FOUNDATION LIMITED, priority 1991, dated 1993)", "system": "Mycobacterium tuberculosis", "experiment": "In vitro activity vs Mycobacterium tuberculosis, proportion method", "format": "cell-based", "details": "ten(10) clinical isolates of Myco. tuberculosis (including several multiply-resistant strains), read-out: average MIC", "data": [{"smiles": "CCC(CC)n1c(C)cc2c3c(N)nc(N)nc3ccc21", "note": "[Compound 2, 1,3-Diamino-7-(1-ethylpropyl)-8-methyl-7H-pyrrolo(3,2-f)quinazoline]", "values": [{"measurement": "M I C", "value": 3.2, "unit": "µg/mL"}]}]}
